# Experimental data from US20080300298A1, “Honokiol Derivates For the Treatment of Proliferative Disorders” (priority 2005, published 2008).
# What was measured:
# [1] = system: microvascular endothelial cells; assay: endothelial proliferation with TRAIL antibody; assay type: cell-based; details: 0, 1, 6 or 9 μg/ml, 48 h
# Procedure: 10^4/well microvascular endothelial cells were cultured in 24-well plates for 24 h. The next day, cells were washed by PBS and pretreated with 0.5 ml/well fresh MEC medium with 0, 1, 6, or 9 μg/ml honokiol for 30 min before addition of TRAIL or isotype control antibody (30 μg/well). Cells were incubated for 48 h after the addition of reagents and were counted with a Coulter Counter. The green bars represent endothelial cells treated with honokiol alone, the dark blue bars represent cells treated with honokiol and TRAIL antibody, and the light blue bars represent cells treated with honokiol and isotype control antibody. The differences in honokiol-treated endothelium in the presence or absence of TRAIL antibody are significant (p<0.05).
# IkBa and p65 = assay: Western blot / immunocytochemistry of TNF-induced IkBa and p65 events; assay type: cell-based, human
# Procedure: Honokiol inhibits TNF-induced activation of NF-kB. H1299 cells were incubated with […] honokiol for 12 h, treated with 0.1 nM TNF for the indicated times, and then analyzed for NF-kB activation by EMSA. (B) H1299 cells (2×10^6/ml) were incubated with […] honokiol for 12 h at 37° C., treated with 0.1 nM TNF for the indicated times at 37° C., and then tested for IkBa (upper panel) in cytosolic fractions by Western blot analysis. Equal protein loading was evaluated by b-actin (lower panel). (C) Honokiol blocks the phosphorylation and ubiquitination (D) of IkBaby TNF. Cells were preincubated with […] honokiol for 12 h, incubated with […]/ml N-acetyl-leucyl-leucyl-norleucinal (ALLN) for 30 min, and then treated with 0.1 nM TNF for 10 min. Cytoplasmic extracts were fractionated and then subjected to Western blot analysis using phospho-specific anti-IkBa antibody. The same membrane was reblotted with anti-IkBa antibody. (E) Honokiol inhibits TNF-induced IkBakinase activity. H1299 cells (2×10^6/ml) were treated with […] honokiol for 12 h and then treated with 0.1 nM TNF for the indicated time intervals. Whole-cell extracts were prepared, and 200 mg of extract was immunoprecipitated with antibodies against IKKa and IKKb. The immune complex kinase assay was then performed as described in Materials and Methods. To examine the effect of honokiol on the level of expression of IKK proteins, 30 mg of whole-cell extract was analyzed on 10% SDS-PAGE, electrotransferred, and immunoblotted with the indicated antibodies as described in Materials and Methods. (F) Honokiol inhibits TNF-induced nuclear translocation of p65. H1299 cells (2×10^6/ml) were either untreated or pretreated with […] honokiol for 12 h at 37° C. and then treated with 0.1 nM TNF for the indicated times. Nuclear extracts were prepared and analyzed by Western blotting using antibodies against p65. (G) honokiol inhibits TNF-induced nuclear translocation of p65. H1299 cells (1×10^6/ml) were first treated with […] honokiol for 12 h at 37° C. and then exposed to 0.1 nM TNF. After cytospin, immunocytochemical analysis was performed as described in Materials and Methods. […] (H) Honokiol inhibits TNF-induced phosphorylation of p65. H1299 cells (2×10^6/ml) were incubated with 25 mM honokiol for 12 h and then treated with 0.1 nM TNF for the indicated times. The cytoplasmic and nuclear extracts were analyzed by Western blotting using antibodies against the phosphorylated form of p65.
# Western blot analysis. […] Cytoplasmic protein […] was resolved on 10% SDS-PAGE gel, transferred to a nitrocellulose membrane, blocked with 5% non-fat milk, and probed with specific antibodies against IkBa, posphorylated IkBa, p65, and phosphorylated p65. To determine the expression of cyclin D1, COX-2, MMP-9, cIAP-1, TRAF1, Bcl-2, Bfl-1, cFLIP, and survivin in whole-cell extracts of treated cells (2×10^6 cells in 2 ml of medium), […] of protein was resolved on SDS-PAGE and probed by Western blot with specific antibodies as per the manufacturer's recommended protocol. The blots were washed, exposed to HRP-conjugated secondary antibodies for 1 h, and finally detected by ECL reagent (Amersham Pharmacia Biotechnology, Piscataway, N.J.). The bands were quantified using a Personal Densitometer Scan v1.30 using Imagequant software version 3.3 (Molecular Dynamics).
# Immunolocalization of NF-kB p65. […]
compound,measurement,setting,value
"C=CCc1ccc(O)c(-c2ccc(O)c(CC=C)c2)c1 [HNK, Honokiol]",inhibition of endothelial proliferation with or without TRAIL antibody,[1],TRAIL-dependent
same,TNF-induced phosphorylation of p65,IkBa and p65,suppressed p65 phosphorylation almost completely
same,TNF-dependent IkBa degradation,"IkBa and p65; 25 mM (printed) honokiol 12 h, 0.1 nM TNF",TNF had no effect on IkBa degradation
same,TNF-induced nuclear translocation of p65,IkBa and p65; Western blot analysis,suppressed nuclear translocation of the p65 subunit of NF-kB
same,TNF-induced IkBa phosphorylation,"IkBa and p65; with ALLN, 0.1 nM TNF 10 min",completely suppressed it
same,TNF-induced IkBa ubiquitination,"IkBa and p65; with ALLN, 0.1 nM TNF 10 min",completely suppressed it
